For one assay, the system named is ATF4. Briefly: ATF4 expression inhibition assay (ATF4 5'UTR luciferase reporter, Tg-stressed HEK293T cells). It counts as cell-based, human. Conditions: Homo sapiens, HEK-293T, 3 h, 100 nM thapsigargin, 3 hours, HEK293T ATF4 luciferase reporter. The procedure, abridged: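 HEK293T stably expressing luciferase fused downstream of human full-length ATF4 5′UTR, stressed with 100 nM thapsigargin plus compound (100 nM or 1 μM; IC50 series 0.1 nM to 1 μM) for 3 h at 37° C. Luminescence normalized to Tg alone (0%) and untreated cells (100% inhibition).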

Assay [1] relates to fasted Balb/c mice, quadriceps. Put plainly: Fasting-induced muscle atrophy. The format is in vivo, mouse. Conditions: 10 mg/kg oral. As for the experimental part: Wild type eight-weeks-old male Balb/c mice obtained from the vivarium Fundación Ciencia & Vida Chile (Santiago, Chile) were used. Mice were housed in independent plastic cages in a room maintained at 25° C. with a 12-h:12-h light:dark cycle.
Twenty-four hours before and during the 2 days of fasted procedures, animals were weighed and receive oral administration via feeding tubes (15 gauge) of vehicle (50% Polyethylene glycol 400 (Sigma-Aldrich P3265) in distilled water or 10 mg/kg of test compound formulated in vehicle solution.
After 2 days of fasting the animals were weighed and sacrificed. Quadriceps were removed from both hindlimbs and weighed. Mice with feed and water ad libitum were used as control. […]
Upon collection, muscles were immediately frozen in liquid nitrogen and then stored at −80° C. […] Protein concentration in supernatants was determined using BCA Protein Assay Kit (Pierce). […]
Puromycin (12D10) (Merck Millipore) ATF4 (Abcam), Atrogin-1 (ECM Biosciences), MuRF-1 (Santa Cruz Biotechnology) and β-actin (Sigma-Aldrich) antibodies were used as primary antibodies. […] Quantification of protein bands was done by densitometry using ImageJ software. […]

Molecules are shown by their SMILES.

As usually defined, the inhibition is the relative decrease from the control value, in per cent. What is called IC50 is the concentration needed to halve the response being measured. On to `O=C(NN1CCN(C[C@@H](O)COc2ccc(Cl)c(F)c2)CC1)c1ccc2cc(Cl)ccc2n1` [Compound 58, (R)-6-chloro-N-(4-(3-(4-chloro-3-fluorophenoxy)-2-hydroxypropyl)piperazin-1-yl)quinoline-2-carboxamide], for which the inhibition at 0.1 µM in the assay with ATF4 (100 nM test compound, read-out: % ATF4 inhibition at 100 nM) stood at 86.5%. The IC50 with ATF4 (read-out: ATF4 inhbition IC50) is 5.7 nM. For the same compound, in the assay on ATF4 (1 μM test compound, read-out: % ATF4 inhibition at 1 μM), the inhibition at 1 µM is 97.6%. Moreover, in assay [1] (vs vehicle-treated fasted mice (FIG. 8F)), the “ATF4 expression in quadriceps” value was “reduction”. Moreover, the “Atrogin-1 expression in quadriceps” value in assay [1] (vs vehicle-treated fasted mice (FIG. 8G)) is on record as “reduction”.
